Values after ≈ are worked out from the molar mass of the structure shown.
How the values were obtained:
[1] = Stability in artificial gastric juice environment (HPLC); settings: 37° C.
Procedure: The samples were dissolved in 500 μL of chromatographic methanol, into which were added 1500 μL of artificial gastric juice, mixed well and then dissolved completely by ultrasound. 50 μL of the above solutions were aspirated precisely, diluted by adding 200 μL of chromatographic methanol, filtered and analyzed by HPLC, wherein the HPLC analysis conditions were mobile phase: 65% methanol -35% water, flow rate: 0.8 mL/min, and column temperature: 25° C., and the initial peak areas were recorded. The above solutions were placed on a constant temperature water bath at 37° C., sampled at 8 h, 16 h and 24 h respectively, and analyzed by HPLC. By calculating the peak areas respectively, the stability data of the corresponding samples in artificial gastric juice environment at 8 h, 16 h and 24 h can be obtained.

Solubility test in water = format: physicochemical; settings: thermodynamic from solid; deionized water, 37° C.
Procedure: Saturated solutions were formulated, filtered and analyzed by HPLC with a sample volume of 1 μL, 3 μL, 5 μL, 10 μL, 15 µL and 20 μL sequentially, and the standard curves of the corresponding compounds were drawn.
[…] of the above compounds were formulated, dissolved by ultrasound for 4 h, and placed on a water bath at 37° C. to stand for 1 h. The resulting unsaturated solutions were centrifuged. 30 μL of supernatants were removed, diluted by adding 200 μL of deionized water, and then filtered.

NLRP3 inflammasome = molecular target: T1, NLRP3 inflammasome (Mus musculus, UniProt Q8R4B8); experiment: Inhibition of LPS and ATP induced NLRP3 inflammasome activation in BMDMs (IL-1β level); format: cell-based, C57BL/6 mice; settings: read-out: IC50, inhibitory effect on activation of NLRP3 inflammasome
T1 construct: endogenous in cells; host or cells: primary bone marrow-derived macrophages (BMDMs) from female C57BL/6 mice, differentiated with rmM-CSF
Description: NLRP3 is an important pattern recognition receptor, that can form the NLRP3 inflammasome through the adaptor ASC and pro-caspase-1. After activation, the NLRP3 inflammasome can mediate the activation of caspase-1, thus promoting the maturation and secretion of IL-1β. In order to determine whether the prepared guaianolide sesquiterpene lactone Compounds 1-8 can inhibit the activation of the NLRP3 inflammasome, we used LPS and ATP to induce the activation of the NLRP3 inflammasome, and observed the effects of Compounds 1-8 on the IL-1β level caused by NLRP3 inflammasome activation.
C57BL/6 mice were sacrificed by cervical dislocation, and then soaked in 75% alcohol for 5-10 min. Subsequently, two hind legs of the mice were cut off with scissors. Next, the meat was removed, and the leg bones were left, which were then washed with PBS for three times. After severing the bone at both ends, a sterile syringe filled with cold serum-free RPMI 1640 medium was used to flush the bone marrow into a 15 mL centrifuge tube. Subsequently, the bone marrow was centrifuged at 1500 rpm for 5 min, and the supernatant was discarded. The residue was resuspended with 1 mL of erythrocyte lysate, blown repeatedly, and then stood for 7 min to lyse erythrocytes. After centrifugation at 1500 rpm for 5 min, the supernatant was discarded. The residue was resuspended with the RPMI 1640 medium containing 100 ng/ml of rmM-CSF, and then transferred to a 6-well culture plate for culture.
The BMDMs were seeded on 6-well cell culture plates and then treated with 100 ng/ml ultrapure LPS for 3 h. […] Subsequently, the cells were stimulated with 5 mM ATP for 45 min. The supernatants were collected into 1.5 mL EP tubes for subsequent detection of IL-1β level.

[2] = test system: mouse acute liver injury model; experiment: Mouse acute liver injury model (CCl4); format: in vivo, C57BL/6 mice
Procedure: The mice were randomly divided into 8 groups, one of which was randomly selected as the normal group, and the other 7 groups were the model group, the parent drug 1 (0.4 and 4 μmol/kg), the hydrochloride 22 (4 μmol/kg), and the fumarate 23 (0.4 and 4 μmol/kg) groups, respectively, with 6 mice in each group. In addition to the normal group injected with 10 mL olive oil/kg, the other mice were injected intraperitoneally with 0.5 mL CCl4+9.5 mL olive oil/kg weight, i.e., the ratio of CCl4 to olive oil was 1:19. […] The mice in the normal group and model group were administered intragastrically the same volume of the solvent 0.5% CMC-Na.
1 h after the last administration, blood was collected from the venous plexus of fundus oculi, stood at room temperature for 2 h, and centrifuged at 3000 rpm for 20 min. The serum was aspirated, aliquoted, and frozen at −70° C. for subsequent use. After blood collection, the mice were sacrificed by cervical dislocation, and the abdominal cavity was opened. The livers were taken out, and rinsed twice with pre-cooled PBS. The liver left lobe tissues of the mice were cut, and fixed with 4% paraformaldehyde for 24-48 h. The remaining tissues were frozen at −70° C. for subsequent use.
μL of each sample was taken for experiments. The levels of AST and ALT in the serum of mice were detected according to the operation manual. The absorbance value was detected at the wavelength of 510 nm by a microplate reader, and the sample concentration (U/L) was calculated according to the standard curve.
The extraction method of total RNA from tissues, cDNA synthesis and the PCR amplification method are the same as those in Example 4.

T1 sequence (Q8R4B8 whole entry): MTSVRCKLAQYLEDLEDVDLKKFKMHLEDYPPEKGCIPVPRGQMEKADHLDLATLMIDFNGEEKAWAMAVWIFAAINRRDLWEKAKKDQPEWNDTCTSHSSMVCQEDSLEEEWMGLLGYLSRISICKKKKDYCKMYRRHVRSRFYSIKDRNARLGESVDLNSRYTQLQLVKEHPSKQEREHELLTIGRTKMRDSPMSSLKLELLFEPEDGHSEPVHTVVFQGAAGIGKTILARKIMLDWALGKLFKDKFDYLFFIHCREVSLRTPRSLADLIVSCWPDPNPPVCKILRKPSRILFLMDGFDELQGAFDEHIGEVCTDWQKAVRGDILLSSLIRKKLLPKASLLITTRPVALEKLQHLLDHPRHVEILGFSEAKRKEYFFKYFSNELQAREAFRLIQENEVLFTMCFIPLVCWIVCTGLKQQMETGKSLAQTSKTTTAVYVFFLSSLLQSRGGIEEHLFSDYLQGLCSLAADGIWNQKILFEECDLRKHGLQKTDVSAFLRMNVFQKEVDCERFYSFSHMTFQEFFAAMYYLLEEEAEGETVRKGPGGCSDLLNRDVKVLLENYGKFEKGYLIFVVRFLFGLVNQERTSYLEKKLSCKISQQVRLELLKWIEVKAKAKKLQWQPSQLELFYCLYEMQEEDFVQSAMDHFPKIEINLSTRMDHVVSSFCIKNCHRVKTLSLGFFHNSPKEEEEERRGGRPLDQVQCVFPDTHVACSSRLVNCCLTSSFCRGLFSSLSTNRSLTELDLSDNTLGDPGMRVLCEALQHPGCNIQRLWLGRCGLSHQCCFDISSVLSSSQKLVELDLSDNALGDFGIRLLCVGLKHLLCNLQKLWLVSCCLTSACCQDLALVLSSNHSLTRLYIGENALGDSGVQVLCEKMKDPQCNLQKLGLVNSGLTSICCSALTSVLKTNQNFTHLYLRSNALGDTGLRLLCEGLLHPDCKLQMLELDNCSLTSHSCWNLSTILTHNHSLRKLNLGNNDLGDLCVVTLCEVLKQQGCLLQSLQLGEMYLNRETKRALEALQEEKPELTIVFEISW

Structure (SMILES) | Non-degradation percentage at 8 h [1] [%] | Non-degradation percentage at 16 h [1] [%] | Non-degradation percentage at 24 h [1] [%] | solubility (Solubility test in water) [mg/mL] | IC50 (NLRP3 inflammasome) [µM] | Acta2 mRNA expression ([2]; liver, 400 μmol/kg) | Col1a1 mRNA expression ([2]; liver, 400 μmol/kg) | Tgfb1 mRNA expression ([2]; liver, 400 μmol/kg) | ALT ([2]; serum, 4 μmol/kg) [U/L] | AST ([2]; serum, 400 μmol/kg) [U/L]
C=C1C(=O)O[C@H]2[C@H]1CC[C@@]1(C)C[C@]13C[C@@H](O)[C@@](C)(O)[C@H]23 [Compound 4] | 98.15 | 96.84 | 96.21 | 0.101 (≈ 0.362 mM) | < 0.04 |  |  |  |  | 
CCC(=O)O[C@]1(C)CC[C@@]23C[C@]2(C)CC[C@@H]2[C@H](OC(=O)[C@H]2CN(C)C)[C@H]31 [Compound 29] |  |  |  | 195 (≈ 535 mM) | 0.04 to 0.08 |  |  |  |  | 
C=C1C(=O)O[C@@H]2[C@@H]3[C@]4(CC[C@@]3(C)OC(=O)CC)C[C@]4(C)CC[C@@H]12 [Compound 7] | 99.31 | 97.85 | 97.65 | 0.0177 (≈ 0.0555 mM) | < 0.04 |  |  |  |  | 
CO[C@]1(C)[C@H](O)C[C@@]23C[C@]2(C)CC[C@@H]2[C@H](OC(=O)[C@H]2CN(C)C)[C@@H]13 [Compound 25] |  |  |  | 221 (≈ 654 mM) | 0.04 to 0.08 |  |  |  |  | 
CN(C)C[C@@H]1C(=O)O[C@H]2[C@H]1CC[C@@]1(C)C[C@]13C[C@@H](O)[C@@](C)(O)[C@H]23 [Compound 26] |  |  |  | 248 (≈ 768 mM) | 0.04 to 0.08 |  |  |  |  | 
C=C1C(=O)O[C@H]2[C@H]1CC[C@@]1(C)C[C@]13C[C@@H](O)[C@@](C)(OC)[C@H]23 [Compound 3] | 99.98 | 99.87 | 97.77 | 0.0355 (≈ 0.121 mM) | < 0.04 |  |  |  |  | 
C=C1C(=O)O[C@@H]2[C@@H]3[C@]4(CC[C@@]3(C)OC)C[C@]4(C)CC[C@@H]12 [Compound 8] | 98.36 | 95.58 | 94.08 | 0.00852 (≈ 0.0308 mM) | < 0.04 |  |  |  |  | 
C=C1CC[C@H]2C(=C)CC[C@H]3C(=C)C(=O)O[C@@H]3[C@@H]12 [dehydrocostus lactone, reference compound] | 68.91 | 65.42 | 57.86 | 44.8 (≈ 195 mM) |  |  |  |  |  | 
C=C1C(=O)O[C@@H]2[C@@H]3[C@]4(CC[C@@]3(C)F)C[C@]4(C)CC[C@@H]12 [Compound 5] | 99.91 | 99.85 | 99.84 | 0.0259 (≈ 0.0979 mM) | < 0.04 |  |  |  |  | 
CC1=CC[C@@]23C[C@]2(C)CC[C@@H]2[C@H](OC(=O)[C@H]2CN(C)C)[C@@H]13 [Compound 24] |  |  |  | 96.6 (≈ 334 mM) | 0.04 to 0.08 |  |  |  |  | 
COc1cc(C2Oc3cc([C@H]4Oc5cc(O)cc(O)c5C(=O)[C@@H]4O)ccc3OC2CO)ccc1O (some centres unmarked) [Silybin, reference compound] |  |  |  |  |  | 2.91 | 1.84 | 1.11 | 121.58 | 301.45
C=C1C(=O)O[C@@H]2C3=C(C)CC[C@]34C[C@]4(C)CC[C@@H]12 [Compound 6] | 99.89 | 96.80 | 95.72 | 0.00258 (≈ 0.0106 mM) | < 0.04 |  |  |  |  | 
C=C1C(=O)O[C@@H]2[C@H]3C(C)=CC[C@]34C[C@]4(C)CC[C@@H]12 [Compound 2] | 90.92 | 86.62 | 78.26 | 0.0008 (≈ 0.00327 mM) | < 0.04 |  |  |  |  | 
CC1=CC[C@@]23C[C@]2(C)CC[C@H]2[C@H](CN(C)C)C(=O)O[C@@H]2C13 (some centres unmarked) [Compound 28] |  |  |  | 120 (≈ 416 mM) | 0.08 to 0.1 |  |  |  |  | 
CN(C)C[C@@H]1C(=O)O[C@H]2[C@H]1CC[C@@]1(C)C[C@]13CC[C@@](C)(F)[C@H]23 [Compound 27] |  |  |  | 208 (≈ 674 mM) | 0.04 to 0.08 |  |  |  |  | 
